Assays:
BALB/C3T3 fibroblasts = test: Cytotoxicity of dispersants: DNA synthesis activity ([3H]thymidine incorporation) in cultured fibroblasts; format: cell-based, mouse; details: added to medium at 1 x 10⁻⁴ to 1 x 10⁻¹%, culture 19 hours; compared with NOG, SB12, Triton X-100, NP-40
Procedure: Upon culturing BALB/C3T3 fibroblasts in bovine serum-supplemented medium on a 24 well plate, CHAPS, NOG (1-O-n-octyl-β-D-glucopyranoside), SB12 (3-(dodecylmethylammonio)-1-propane sulfonate: sulfobetaine 12), Triton X-100 and NP-40 (Nonidet P-40) were added to the medium at concentrations of 1 x l0⁻⁴ to 1 x 10⁻¹%.
(§1) BALB/C3T3 cells, a kind of fibroblasts established from a mouse fetus were suspended in 3% bovine serum-containing DME medium (DME-3% CS) at a concentration of 2 x 10⁴/ml. One milliliter of the suspension was taken and cultured at 37°C for 5 hours on a 24 well tissue culture dish. Then, the medium was replaced by 1 ml of DME-1% CS followed by culturing at 37°C for 48 hours. A sample (2 to 20 µl) was added thereto, followed by culturing for further 16 hours.
(§2) Then, 10 µl of 2 x 10⁻⁵ M[³H]thymidine (40 µCi/ml) was supplemented. After culturing for 3 hours, radioactivity incorporated into DNA fraction was measured. That is, after the medium was removed, cells were rinsed with 1 ml of PBS (phosphate-buffered saline) once and 3 times with 1 ml of cold 10% TCA (trichloroacetic acid). Then, 1 ml of 0.5 M NaOH was added thereto. After allowing to stand at room temperature for 15 minutes, the mixture was neutralized with 5 M HCl. Scintillator cocktail, 6 ml, was added thereto to measure the radioactivity.

[1] = Solubility in water and organic solvents; format: physicochemical
Description: That is, CHAPS or CHAPSO can be removed by utilizing difference in solubility in organic solvents. CHAPS or CHAPSO is soluble in water, methanol and dimethylsulfoxide but insoluble in other solvents (acetone, acetonitrile, ether, chloroform, 2-methyl-1-propanol, N,N-dimethylformamide, isoamly alcohol, ethanol, hexane, xylene, petroleum ether, benzene, n-heptane, toluene). Utilizing the difference in solubility, CHAPS or CHAPSO can easily be removed.

BALB/C3T3 cells [2] = test: Thermal stability of FGF at 50°C with or without CHAPS (FGF activity); format: physicochemical, mouse; details: FGF 5 µg/ml, 1% CHAPS, 50°C for 1 hour
Procedure: (§3) Next, examples of the present invention are shown. DNA synthesis activity or FGF activity of samples was determined by the method shown in Example 1 and expressed by cpm (counts per minute) x 10⁻⁴/well/3h.
as §1, §2
After commercially available FGF (5 µg/ml) added with 1% CHAPS or added with no CHAPS was allowed to stand at 50°C for 1 hour, stability of FGF was examined. […]

[3] = Heparin-5PW HPLC of extract from BPH tissues with or without CHAPS (elution of FGF activity); format: physicochemical, human; details: Heparin-5PW HPLC of BPH tissue extract, 0.1% CHAPS versus no CHAPS
Description: An extract from human benign prostatic hypertrophy (BPH) tissues was subjected to Heparin-5PW HPLC without adding any CHAPS thereto.
An extract from BPH tissues was subjected to Heparin-5PW HPLC in the presence of 0.1% CHAPS thereto.

BALB/C3T3 cells [4] = test: Adsorption of FGF to containers of different kinds, with or without CHAPS (FGF activity after storage); format: physicochemical, mouse; details: addition of 0.1% CHAPS; FGF 0.5 µg/ml PBS; 4°C for 2 days
Procedure: as §3, §1
as §2, with “After allowing to stand at room temperature for 15 minutes, the mixture was neutralized with 5 M HCl.” left out
Commercially available FGF (fibroblast growth factor) was charged in containers shown in Table 1, respectively, in 0.5 µg/ml PBS; the containers were charged with or without 0.1% CHAPS. After storing at 4°C for 2 days, FGF activity in each container was measured.

[5] = in other solvents (acetone, acetonitrile, ether, chloroform, 2-methyl-1-propanol, N,N-dimethylformamide, isoamyl alcohol, ethanol, hexane, xylene, petroleum ether, benzene, n-heptane, toluene)
[6] = in water, methanol and dimethylsulfoxide

Structure (SMILES)	cytotoxicity (DNA synthesis activity) (BALB/C3T3 fibroblasts)	solubility [1, 5]	solubility [1, 6]	effect on thermal instability of FGF (BALB/C3T3 cells [2])	adsorption of FGF onto carrier and device during chromatographies [3]	adsorption of FGF onto the containers (BALB/C3T3 cells [4])
C[C@H](CCC(=O)NCCC[N+](C)(C)CCCS(=O)(=O)[O-])[C@H]1CC[C@H]2[C@@H]3[C@H](O)C[C@@H]4C[C@H](O)CC[C@]4(C)[C@H]3C[C@H](O)[C@]12C [CHAPS, 3-[(3-cholamidopropyl)dimethylammonio]-1-propane sulfonate]	least cytotoxicity among various surface active agents	insoluble	soluble	stabilizing effect	prevents adsorption of FGF onto a carrier and device	effectively prevented
C[C@H](CCC(=O)NCCC[N+](C)(C)CC(O)CS(=O)(=O)[O-])[C@H]1CC[C@H]2[C@@H]3[C@H](O)C[C@@H]4C[C@H](O)CC[C@]4(C)[C@H]3C[C@H](O)[C@]12C (some centres unmarked) [CHAPSO, 3-(3-cholamidopropyl)dimethylammonio]-2-hydroxy-1-propane sulfonate]		insoluble	soluble			
